The source made the active and inactive calls.
Columns and labels:
[1] = molecular target: T1, Carboxy-terminal domain RNA polymerase II polypeptide A small phosphatase 1 (Homo sapiens, UniProt Q9GZU7); experiment: inhibitors of CTDSP1, concentration-response testing, biochemical assay, absorbance-based, actives from ultra-high-throughput screening (AID 540297); type: functional
T1 sequence (Q9GZU7 whole entry): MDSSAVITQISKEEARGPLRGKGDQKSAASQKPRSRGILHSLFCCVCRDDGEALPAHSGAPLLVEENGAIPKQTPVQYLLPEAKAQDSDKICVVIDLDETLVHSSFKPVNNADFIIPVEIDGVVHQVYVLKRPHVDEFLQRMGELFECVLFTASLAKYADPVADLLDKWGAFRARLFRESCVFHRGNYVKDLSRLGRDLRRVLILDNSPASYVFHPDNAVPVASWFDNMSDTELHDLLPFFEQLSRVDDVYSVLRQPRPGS

[2] = molecular target: Eukaryotic translation initiation factor 4E (Mus musculus, UniProt P63073); experiment: eIF4E–eIF4G protein interaction inhibitors, dose response, biochemical, TR-FRET (AID 855); type: functional;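 note: potency for disrupting eIF4E binding to eIF4GI seen as loss of FRET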
[3] = molecular target: T2, Estrogen receptor beta (Homo sapiens, UniProt Q92731);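 note: recombinant ER-beta bound to coactivator SRC1 peptide in presence of estradiol agonist; inhibitors block coactivator peptide binding and lower the FRET signal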
T2 sequence (Q92731 whole entry): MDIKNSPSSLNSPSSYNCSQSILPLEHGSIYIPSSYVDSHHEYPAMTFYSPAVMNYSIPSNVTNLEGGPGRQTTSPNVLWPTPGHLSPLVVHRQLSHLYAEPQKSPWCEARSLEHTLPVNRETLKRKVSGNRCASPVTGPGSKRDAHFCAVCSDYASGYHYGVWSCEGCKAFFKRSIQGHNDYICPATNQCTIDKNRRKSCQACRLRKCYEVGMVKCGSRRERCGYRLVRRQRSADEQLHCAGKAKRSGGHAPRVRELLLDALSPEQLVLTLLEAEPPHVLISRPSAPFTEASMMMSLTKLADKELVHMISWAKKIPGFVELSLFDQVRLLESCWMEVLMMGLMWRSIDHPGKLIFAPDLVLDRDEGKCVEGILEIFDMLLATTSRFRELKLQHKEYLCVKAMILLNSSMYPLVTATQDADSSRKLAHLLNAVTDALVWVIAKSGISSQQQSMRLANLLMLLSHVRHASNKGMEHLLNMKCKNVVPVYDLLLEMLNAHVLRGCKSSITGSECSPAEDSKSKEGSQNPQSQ

[4] = molecular target: Ephrin type-A receptor 4 (Mus musculus, UniProt Q03137); experiment: inhibitors of EphA4 binding to KYL peptide, primary screen, biochemical, colorimetric, mouse EphA4 (AID 689); type: functional
Chain of Ephrin type-A receptor 4 (Q03137 whole entry): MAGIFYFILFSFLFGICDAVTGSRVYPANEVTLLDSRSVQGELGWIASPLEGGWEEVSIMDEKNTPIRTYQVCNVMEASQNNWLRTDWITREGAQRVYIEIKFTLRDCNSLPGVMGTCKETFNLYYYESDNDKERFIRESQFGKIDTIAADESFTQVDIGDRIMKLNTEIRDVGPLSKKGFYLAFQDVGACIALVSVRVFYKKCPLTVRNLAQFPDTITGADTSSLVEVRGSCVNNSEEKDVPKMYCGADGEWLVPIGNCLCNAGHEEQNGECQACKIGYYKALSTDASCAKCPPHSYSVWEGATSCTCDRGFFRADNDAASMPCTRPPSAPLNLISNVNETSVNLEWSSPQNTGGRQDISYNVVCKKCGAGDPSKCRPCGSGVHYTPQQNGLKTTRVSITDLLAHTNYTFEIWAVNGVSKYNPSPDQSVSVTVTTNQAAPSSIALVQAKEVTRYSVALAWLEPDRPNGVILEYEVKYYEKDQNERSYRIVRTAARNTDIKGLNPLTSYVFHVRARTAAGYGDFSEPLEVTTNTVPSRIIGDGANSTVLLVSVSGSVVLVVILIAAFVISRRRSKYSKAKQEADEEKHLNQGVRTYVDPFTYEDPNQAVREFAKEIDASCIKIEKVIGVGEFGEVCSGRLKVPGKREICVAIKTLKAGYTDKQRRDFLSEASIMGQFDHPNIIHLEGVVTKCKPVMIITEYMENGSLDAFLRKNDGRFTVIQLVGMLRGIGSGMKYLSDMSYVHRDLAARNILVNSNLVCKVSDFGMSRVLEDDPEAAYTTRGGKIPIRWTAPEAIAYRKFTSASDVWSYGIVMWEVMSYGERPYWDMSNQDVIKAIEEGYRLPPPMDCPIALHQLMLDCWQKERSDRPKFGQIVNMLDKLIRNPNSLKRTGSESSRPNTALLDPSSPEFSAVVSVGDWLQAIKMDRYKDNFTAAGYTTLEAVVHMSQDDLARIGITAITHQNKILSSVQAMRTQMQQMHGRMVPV

[5] = molecular target: T2, Estrogen receptor beta; experiment: ERβ–SRC-3 coactivator interaction inhibitors, confirmation, orthogonal assay, biochemical, ELISA, streptavidin-HRP readout (AID 1060)
[6] = molecular target: Induced myeloid leukemia cell differentiation protein Mcl-1 (Homo sapiens, UniProt Q07820); type: functional
Chain of Induced myeloid leukemia cell differentiation protein Mcl-1 (Q07820 whole entry): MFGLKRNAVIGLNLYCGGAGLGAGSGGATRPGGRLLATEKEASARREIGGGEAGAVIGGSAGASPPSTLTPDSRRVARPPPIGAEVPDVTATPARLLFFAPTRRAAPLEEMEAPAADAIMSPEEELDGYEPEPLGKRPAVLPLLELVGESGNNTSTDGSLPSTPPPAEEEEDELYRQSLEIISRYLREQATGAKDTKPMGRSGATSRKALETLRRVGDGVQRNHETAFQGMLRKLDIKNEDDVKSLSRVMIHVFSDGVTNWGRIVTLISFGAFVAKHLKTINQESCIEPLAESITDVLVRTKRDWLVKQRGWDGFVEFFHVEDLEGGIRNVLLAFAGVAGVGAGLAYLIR

[7] = molecular target: T3, Rac GTPase-activating protein 1 (Homo sapiens, UniProt Q9H0H5); experiment: MgcRacGAP GTPase-activating activity inhibitors, confirmation, biochemical, ADP Hunter fluorescence, primary and confirmatory (AID 624330); type: functional
T3 sequence (Q9H0H5 whole entry): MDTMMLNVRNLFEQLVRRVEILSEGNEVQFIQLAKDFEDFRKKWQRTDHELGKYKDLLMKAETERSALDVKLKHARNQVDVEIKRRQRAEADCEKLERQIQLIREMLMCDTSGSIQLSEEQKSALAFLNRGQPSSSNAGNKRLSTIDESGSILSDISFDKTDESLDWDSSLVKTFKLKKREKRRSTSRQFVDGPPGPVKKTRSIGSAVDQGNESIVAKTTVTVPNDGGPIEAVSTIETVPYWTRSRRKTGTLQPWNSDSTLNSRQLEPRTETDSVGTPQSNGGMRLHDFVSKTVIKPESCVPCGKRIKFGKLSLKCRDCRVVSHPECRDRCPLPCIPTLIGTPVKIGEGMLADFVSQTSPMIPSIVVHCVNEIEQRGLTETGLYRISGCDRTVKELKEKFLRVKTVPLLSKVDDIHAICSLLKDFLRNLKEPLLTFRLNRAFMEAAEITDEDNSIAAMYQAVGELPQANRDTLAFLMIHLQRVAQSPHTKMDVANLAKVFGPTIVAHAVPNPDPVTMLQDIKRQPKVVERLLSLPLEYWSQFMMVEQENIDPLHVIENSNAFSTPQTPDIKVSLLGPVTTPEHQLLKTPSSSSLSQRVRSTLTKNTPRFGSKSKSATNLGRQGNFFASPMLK

[8] = molecular target: DNA (cytosine-5)-methyltransferase 1 (Homo sapiens, UniProt P26358); experiment: DNMT1 methyltransferase inhibitors, confirmation, biochemical, fluorescent molecular beacon (AID 602386); type: functional
Chain of DNA (cytosine-5)-methyltransferase 1 (P26358 whole entry): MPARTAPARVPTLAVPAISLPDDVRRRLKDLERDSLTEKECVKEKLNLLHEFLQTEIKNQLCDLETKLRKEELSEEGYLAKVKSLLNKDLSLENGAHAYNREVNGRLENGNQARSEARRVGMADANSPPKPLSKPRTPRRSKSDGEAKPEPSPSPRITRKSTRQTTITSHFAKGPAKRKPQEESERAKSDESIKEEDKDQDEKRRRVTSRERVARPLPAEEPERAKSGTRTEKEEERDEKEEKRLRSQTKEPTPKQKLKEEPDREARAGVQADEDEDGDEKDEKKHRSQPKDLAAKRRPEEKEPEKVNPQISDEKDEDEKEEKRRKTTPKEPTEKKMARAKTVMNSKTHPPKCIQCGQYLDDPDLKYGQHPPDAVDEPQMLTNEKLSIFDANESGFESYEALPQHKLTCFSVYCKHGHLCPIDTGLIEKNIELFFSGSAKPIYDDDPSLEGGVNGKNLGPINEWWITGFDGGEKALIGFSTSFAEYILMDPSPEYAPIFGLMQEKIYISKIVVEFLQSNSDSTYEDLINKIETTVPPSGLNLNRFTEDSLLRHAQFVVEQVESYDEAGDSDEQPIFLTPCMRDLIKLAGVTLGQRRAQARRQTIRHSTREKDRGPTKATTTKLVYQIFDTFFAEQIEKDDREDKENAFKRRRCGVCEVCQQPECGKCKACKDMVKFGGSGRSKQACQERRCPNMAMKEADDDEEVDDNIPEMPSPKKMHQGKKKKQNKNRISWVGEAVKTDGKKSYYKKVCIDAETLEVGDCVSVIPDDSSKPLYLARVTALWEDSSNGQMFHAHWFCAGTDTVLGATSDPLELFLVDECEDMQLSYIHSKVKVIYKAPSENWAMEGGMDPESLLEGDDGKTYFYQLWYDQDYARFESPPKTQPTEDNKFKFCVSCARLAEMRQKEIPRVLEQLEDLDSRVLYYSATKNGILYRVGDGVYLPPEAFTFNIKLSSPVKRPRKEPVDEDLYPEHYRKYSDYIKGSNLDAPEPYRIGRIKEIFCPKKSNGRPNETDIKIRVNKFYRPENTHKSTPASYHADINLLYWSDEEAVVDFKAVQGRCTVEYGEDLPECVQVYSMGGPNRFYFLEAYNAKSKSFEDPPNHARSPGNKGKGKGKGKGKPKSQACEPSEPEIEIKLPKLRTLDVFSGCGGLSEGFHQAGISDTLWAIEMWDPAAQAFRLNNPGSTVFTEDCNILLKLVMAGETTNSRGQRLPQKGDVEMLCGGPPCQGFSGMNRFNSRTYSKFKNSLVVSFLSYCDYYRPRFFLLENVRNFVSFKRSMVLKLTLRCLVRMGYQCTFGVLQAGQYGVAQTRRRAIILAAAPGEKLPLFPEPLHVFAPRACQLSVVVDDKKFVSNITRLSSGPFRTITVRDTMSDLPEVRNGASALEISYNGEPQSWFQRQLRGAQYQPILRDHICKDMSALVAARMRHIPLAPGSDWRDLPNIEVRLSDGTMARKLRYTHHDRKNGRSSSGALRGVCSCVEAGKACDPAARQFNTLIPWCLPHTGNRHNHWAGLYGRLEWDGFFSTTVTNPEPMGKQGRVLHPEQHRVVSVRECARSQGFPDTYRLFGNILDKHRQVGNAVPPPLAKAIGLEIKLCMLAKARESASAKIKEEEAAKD

[9] = molecular target: Kallikrein-7 (Homo sapiens, UniProt P49862); experiment: Fluorescence Intensity-based biochemical primary high throughput dose response assay to identify activators of kallikrein-7 (K7) zymogen.
Chain of Kallikrein-7 (P49862 whole entry): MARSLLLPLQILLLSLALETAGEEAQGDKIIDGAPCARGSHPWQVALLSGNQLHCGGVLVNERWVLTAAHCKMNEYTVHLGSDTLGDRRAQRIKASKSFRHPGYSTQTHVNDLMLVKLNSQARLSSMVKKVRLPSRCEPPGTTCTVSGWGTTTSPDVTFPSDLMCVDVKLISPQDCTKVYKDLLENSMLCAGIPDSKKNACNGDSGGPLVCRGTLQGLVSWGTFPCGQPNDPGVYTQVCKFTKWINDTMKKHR

[10] = molecular target: T4, Protein skinhead-1 (Caenorhabditis elegans, UniProt P34707); type: functional
T4 sequence (P34707 whole entry): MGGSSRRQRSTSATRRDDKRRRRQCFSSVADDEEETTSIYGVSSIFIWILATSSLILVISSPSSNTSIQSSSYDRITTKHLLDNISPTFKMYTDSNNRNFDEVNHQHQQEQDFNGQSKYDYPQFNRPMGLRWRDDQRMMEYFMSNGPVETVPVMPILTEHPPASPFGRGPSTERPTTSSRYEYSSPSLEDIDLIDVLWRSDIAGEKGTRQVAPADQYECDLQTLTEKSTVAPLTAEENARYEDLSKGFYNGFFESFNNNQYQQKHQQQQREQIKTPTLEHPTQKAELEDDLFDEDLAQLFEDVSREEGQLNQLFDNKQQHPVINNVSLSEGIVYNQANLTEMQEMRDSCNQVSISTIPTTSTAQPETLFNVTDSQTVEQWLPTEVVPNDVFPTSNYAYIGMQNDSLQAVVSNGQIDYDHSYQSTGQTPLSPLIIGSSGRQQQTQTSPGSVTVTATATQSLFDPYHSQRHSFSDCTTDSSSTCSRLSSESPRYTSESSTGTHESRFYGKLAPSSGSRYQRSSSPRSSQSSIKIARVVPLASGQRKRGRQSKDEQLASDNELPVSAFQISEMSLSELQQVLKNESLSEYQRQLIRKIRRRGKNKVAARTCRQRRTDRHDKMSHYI

[11] = molecular target: Sphingosine 1-phosphate receptor 2 (Homo sapiens, UniProt O95136); experiment: Dose Response Cell Based Assay for Antagonists of the S1P2 Receptor. [Related pubchem assays: 856, 736 ]; type: functional
Chain of Sphingosine 1-phosphate receptor 2 (O95136 whole entry): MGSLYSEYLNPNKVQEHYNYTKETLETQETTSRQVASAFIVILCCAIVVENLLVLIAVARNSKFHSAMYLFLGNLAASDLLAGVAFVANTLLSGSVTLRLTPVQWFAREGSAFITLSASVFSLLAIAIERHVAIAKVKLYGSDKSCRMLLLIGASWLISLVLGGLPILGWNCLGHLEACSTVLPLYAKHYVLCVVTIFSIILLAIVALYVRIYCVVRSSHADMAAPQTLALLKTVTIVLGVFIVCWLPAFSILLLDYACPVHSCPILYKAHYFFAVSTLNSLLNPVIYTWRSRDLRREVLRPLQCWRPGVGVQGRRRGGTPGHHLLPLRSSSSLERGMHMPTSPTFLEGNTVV

[12] = molecular target: Cytochrome P450 2C9 (Homo sapiens, UniProt P11712)
[13] = NIH:OVCAR-3 ovarian cancer cell cytotoxicity, dose response, PAX8 inhibitor project, plate reader, dry powder samples (AID 743044); type: functional, cell-based
[14] = molecular target: Paired box protein Pax-8 (Homo sapiens, UniProt Q06710); experiment: inhibitors of PAX8-driven TPO luciferase reporter, dose response, RMG-I cells, cherry-pick (AID 687027); type: functional, cell-based;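 note: luciferase reporter driven by Pax8 target thyroperoxidase promoter measured by SteadyGlo luminescence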
Chain of Paired box protein Pax-8 (Q06710 whole entry): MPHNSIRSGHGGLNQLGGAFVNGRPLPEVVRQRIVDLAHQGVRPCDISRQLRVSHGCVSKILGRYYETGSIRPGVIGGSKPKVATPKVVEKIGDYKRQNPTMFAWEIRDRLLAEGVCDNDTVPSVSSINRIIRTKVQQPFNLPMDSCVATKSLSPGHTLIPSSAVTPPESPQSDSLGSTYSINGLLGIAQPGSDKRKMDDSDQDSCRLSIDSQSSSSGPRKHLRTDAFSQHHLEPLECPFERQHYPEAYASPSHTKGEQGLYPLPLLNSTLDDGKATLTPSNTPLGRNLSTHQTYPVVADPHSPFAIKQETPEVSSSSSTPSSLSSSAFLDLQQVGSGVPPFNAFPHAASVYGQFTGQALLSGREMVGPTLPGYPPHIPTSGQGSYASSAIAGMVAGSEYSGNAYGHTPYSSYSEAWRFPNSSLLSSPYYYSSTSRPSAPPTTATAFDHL

[15] = A2780 ovarian cancer cell cytotoxicity, dose response, cytotoxicity control, plate reader, dry powder samples (AID 743046); type: functional, cell-based
[16] = cytotoxicity in OVCAR8 ovarian cancer cells, dose response, PAX8 project, cell-based, plate reader, dry powder samples (AID 743197); type: functional; conditions: OVCAR-8
[17] = P. falciparum Dd2 growth inhibitors, dose response, SYBR Green, cherry-picked samples (AID 1159567); type: functional, cell-based
[18] = P. falciparum 3D7-ScDHODH growth inhibitors, dose response, SYBR Green, dry powder samples (AID 1159570); type: functional, cell-based;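 note: parasite growth measured after 72 hours of compound exposure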
[19] = P. falciparum ATP4 D1247Y mutant growth inhibitors, dose response, NITD609-resistant line, SYBR Green, dry powder (AID 1159571); type: functional, cell-based;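 note: parasites synchronized at ring stage by sorbitol before testing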
[20] = P. falciparum Dd2 growth inhibitors, dose response, SYBR Green, dry powder samples (AID 1159566); type: functional, cell-based;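 note: potency for growth inhibition with lower SYBR green DNA signal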
[21] = inhibitors of Vif binding to APOBEC3G peptide, primary screen, biochemical, TR-FRET, GST-Vif 1-94, biotin-A3G peptide, dose response retest (AID 1117319); type: functional;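 note: TR-FRET signal of purified GST-Vif binding a biotinylated A3G peptide; inhibitors lower the FRET signal by blocking Vif and A3G binding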
[22] = molecular target: Protein Tat (Human immunodeficiency virus type 1 group M subtype B (isolate HXB2)(HIV-1), UniProt P04608); type: functional;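 note: tat binding to TAR RNA read out by fluorescence polarization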
Chain of Protein Tat (P04608 whole entry): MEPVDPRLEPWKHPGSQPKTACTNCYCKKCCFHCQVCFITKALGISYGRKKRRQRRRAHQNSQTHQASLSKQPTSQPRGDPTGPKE

[23] = molecular target: Large T antigen (Simian virus 40, UniProt P03070); type: functional, Betapolyomavirus macacae;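 note: Confirmatory-stage PubChem screen for compounds that inhibit SV40 T antigen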
[24] = molecular target: NAD-dependent protein deacylase sirtuin-5, mitochondrial (Homo sapiens, UniProt Q9NXA8); experiment: SIRT5 desuccinylase inhibitors, dose response, biochemical, fluorescence imaging, cherry-pick, set 5 (AID 720591);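 note: desuccinylation of succinyl peptide AMC substrate read as fluorescence after trypsin release; potency of inhibitors that lower fluorescence and may act on trypsin instead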
Chain of NAD-dependent protein deacylase sirtuin-5, mitochondrial (Q9NXA8 whole entry): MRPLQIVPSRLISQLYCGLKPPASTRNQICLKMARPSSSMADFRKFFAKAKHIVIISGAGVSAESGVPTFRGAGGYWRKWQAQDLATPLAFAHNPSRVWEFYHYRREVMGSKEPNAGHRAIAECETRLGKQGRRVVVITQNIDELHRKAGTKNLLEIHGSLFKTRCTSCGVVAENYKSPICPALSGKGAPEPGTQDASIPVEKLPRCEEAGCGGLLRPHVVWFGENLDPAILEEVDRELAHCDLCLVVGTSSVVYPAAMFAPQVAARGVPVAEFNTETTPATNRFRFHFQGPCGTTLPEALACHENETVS

[25] = cytotoxicity toward Colo320 cells – cell-based, CellTiter-Glo luminescence, IC50, dose response (AID 1117334); type: functional; conditions: COLO 320
[26] = cytotoxicity toward HCT116 cells – cell-based, CellTiter-Glo luminescence, IC50, dose response (AID 1117332); type: functional; conditions: HCT-116
[27] = molecular target: Cytochrome P450 3A4 (Homo sapiens, UniProt P08684);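 note: CYP3A4 tested as one member of a cytochrome P450 panel screen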
[28] = Concentration-dependent survival of SW480 colon cancer line, luminescence detection with CellTiter-Glo, half-maximal inhibitory concentration (AID 1117338); type: functional
[29] = cytotoxicity toward HT-29 cells – cell-based, CellTiter-Glo luminescence, IC50, dose response (AID 1117330); type: functional
[30] = RKO cell viability reduction, dose response, CellTiter-Glo luminescence (AID 1117322); type: functional
[31] = CellTiter-Glo luminescent dose response of DLD-1 viability loss (AID 1117352); type: functional
[32] = SNU-C1 cell viability reduction, dose response, CellTiter-Glo luminescence (AID 1117323); type: functional, cell-based
[33] = molecular target: T5, Calpain-2 catalytic subunit (Sus scrofa, UniProt P43367); experiment: pig calpain II inhibitor potency, dose response, biochemical, fluorogenic peptide substrate (AID 1420); type: functional
T5 sequence (P43367 whole entry): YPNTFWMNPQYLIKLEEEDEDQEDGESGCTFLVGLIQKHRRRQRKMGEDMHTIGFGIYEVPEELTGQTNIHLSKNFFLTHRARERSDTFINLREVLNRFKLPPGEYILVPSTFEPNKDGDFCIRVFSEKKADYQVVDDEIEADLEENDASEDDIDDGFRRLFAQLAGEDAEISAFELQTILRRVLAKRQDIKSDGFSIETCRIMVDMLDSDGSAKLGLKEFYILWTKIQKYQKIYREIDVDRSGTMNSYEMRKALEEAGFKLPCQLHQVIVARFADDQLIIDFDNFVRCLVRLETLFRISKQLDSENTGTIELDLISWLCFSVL

[34] = Jurkat T cell cytotoxicity, dose response, cytotoxicity control for P. falciparum gametocyte viability project, luminescence (AID 1117277); type: functional, cell-based;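 note: potency reflects loss of cellular ATP meaning fewer viable cells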
[35] = P. falciparum late gametocyte killing, dose response, luminescence (AID 1117278); type: functional, cell-based;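 note: gametocytes exposed to compound for 24 hours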
[36] = HEp-2 cell cytotoxicity, dose response, cytotoxicity control for RSV inhibitor project, HTS (AID 2410); type: functional; conditions: human respiratory syncytial virus

COc1ccc(Cc2nnc(NC(=O)Cc3cccs3)s2)cc1
IC50 [1]: 2.82 µM (active)
IC50 [2]: 16.9 µM (active)
IC50 [3]: < 1.56 µM (active)
IC50 [4]: 13.6 µM (active)
IC50 [5]: 0.0725 µM (not active)
IC50 [6]: 1.59 µM (active)
IC50 [7]: 52 µM (active)
IC50 [8]: 4.47 µM (active)

O=c1c(-c2ccc(Br)cc2)coc2c(CN3CCOCC3)c(O)ccc12
EC50 [9]: 66.1 µM (inactive)
IC50 [10]: > 100 µM (inactive)

COC(=O)c1sc2cc(C(F)(F)F)cnc2c1-c1cccs1
IC50 [11]: > 30 µM (not active)

O=C(c1cc(-c2cccs2)nc2ccccc12)N1CCN(CCO)CC1
EC50 [9]: > 69.5 µM (inactive)

O=C(Nc1cccc2ccccc12)/C(=C/c1ccc([N+](=O)[O-])cc1)NC(=O)c1ccccc1
AC50 [12]: 5.01 µM (inconclusive)
IC50 [4]: 11.4 µM (active)

C[C@@H]1CN([C@H](C)CO)C(=O)c2cc(NS(=O)(=O)c3ccc(F)cc3)ccc2O[C@@H](C)CCCCO[C@H]1CN(C)S(=O)(=O)c1ccc(Cl)cc1
AC50 [13]: 32 µM (active)
AC50 [14]: 6.83 µM (active)
AC50 [15]: 2.97 µM (active)
AC50 [16]: > 70 µM (inactive)

COc1cccc(S(=O)(=O)N(C)C[C@@H]2OCc3ccccc3-c3c(n(C)c4ccccc34)C(=O)N([C@H](C)CO)C[C@@H]2C)c1
AC50 [17]: 0.832 µM (active)
AC50 [14]: 6.87 µM (active)
AC50 [18]: 0.476 µM (active)
AC50 [16]: 38.6 µM (active)
AC50 [19]: 0.46 µM (active)
AC50 [20]: 0.322 µM (active)

O=C(CNC(=O)c1cccs1)OCC(=O)c1ccc2ccccc2c1
IC50 [21]: > 100 µM (active)

CC1OC(OCC2OC(Oc3c(-c4ccc(O)cc4)oc4cc(O)cc(O)c4c3=O)C(O)C(O)C2O)C(O)C(O)C1O (stereo unspecified)
IC50 [22]: > 100 µM (active)
IC50 [23]: 17.3 µM (active)

COCC(C)n1c(C)cc(C(=O)COC(=O)CCc2nc(O)c3ccccc3n2)c1C (stereo unspecified)
AC50 [24]: > 30 µM (inactive)

COc1cc(C(=O)Nc2nnc(Cc3ccccc3)s2)cc(OC)c1OC
AC50 [24]: > 30 µM (inactive)

Cc1ccc(Cl)c(Nc2ccccc2C(=O)[O-])c1Cl.O.[Na+] [MECLOFENAMATE SODIUM]
IC50 [25]: > 20 µM (inactive)
IC50 [26]: > 20 µM (inactive)
AC50 [27]: inconclusive
IC50 [28]: > 20 µM (inactive)
IC50 [29]: > 20 µM (inactive)
IC50 [30]: > 20 µM (inactive)
IC50 [31]: 15.1 µM (inactive)
IC50 [32]: > 20 µM (inactive)

CC(C(=O)Nc1ccccc1Oc1ccccc1)c1ccccc1 (stereo unspecified)
IC50 [33]: 19.8 µM (not active)
IC50 [34]: > 83.2 µM (inactive)
IC50 [35]: > 109 µM (inactive)

O=C(Nc1ccc2c(c1)oc1ccccc12)c1cccnc1
IC50 [21]: > 100 µM (active)
CC50 [36]: 46.2 µM (active)

C[C@H]1CN([C@@H](C)CO)C(=O)Cc2cc(NC(=O)Nc3ccc(C(F)(F)F)cc3)ccc2O[C@@H]1CN(C)C(=O)Nc1ccc2c(c1)OCO2
AC50 [17]: 1.51 µM (active)
AC50 [18]: 1.11 µM (active)
AC50 [19]: 0.93 µM (active)
AC50 [20]: 0.9 µM (active)

— ChEMBL document CHEMBL1201862, “PubChem BioAssay data set” (2004)
